According to US10131664B2 (Celgene Quanticel Research, Inc., priority 2013, dated 2018):

Legend:
full-length human LSD1 = full-length human LSD1 (Homo sapiens (Human), UniProt O60341); assay: In vitro enzyme inhibition assay LSD-1 (TR-FRET); type: biochemical; conditions: TR-FRET, 0.1 nM LSD1, 50 nM H3K4me1-biotin peptide, 2 μM FAD, pH7.3; read-out: LSD1 IC50
Experimental: This assay determines the ability of a test compound to inhibit LSD1 demethylase activity.
The enzymatic assay of LSD1 activity is based on Time Resolved-Fluorescence Resonance Energy Transfer (TR-FRET) detection.
The ability of the compounds disclosed herein to inhibit LSD1 activity was quantified and the respective IC50 value was determined. Table 5 provides the IC50 values of various substituted heterocyclic compounds disclosed herein.

THP-1 (AML) cells = assay: LSD1 CD11b cellular assay (flow cytometry); type: cell-based; conditions: Homo sapiens, 96 h; CD11b expression in THP-1 (AML) cells, flow cytometry, 4 days incubation; read-out: Cellular IC50
Experimental: To analyze LSD1 inhibitor efficacy in cells, a CD11b flow cytometry assay was performed. LSD1 inhibition induces CD11b expression in THP-1 (AML) cells which can be measured by flow cytometry. […] LSD1 test compounds were serially diluted in DMSO. The dilutions were added to each well accordingly to a final concentration of 0.2% DMSO. The cells were incubated at 37° C. in 5% CO2 for 4 days. 250 μL of each well was transferred to a well in a 96 well round bottom plate. The plate was centrifuged at 1200 rpm at 4 degrees Celsius in a Beckman Coulter Alegra 6KR centrifuge for 5 min. The media was removed leaving the cells at the bottom of the wells. The cells were washed in 100 μL cold HBSS (Hank's Balanced Salt Solution) plus 2% BSA (Bovine Serum Albumin) solution and centrifuged at 1200 rpm at 4° C. for 5 min. The wash was removed. […] The cells were centrifuged and washed two times in 100 μl HBSS plus 2% BSA. After the final spin the cells were resuspended in 100 μL HBSS plus 2% BSA containing 1 μg/mL DAPI (4′,6-diamidino-2-phenylindole). The cells were then analyzed by flow cytometry in a BD FACSAria machine. Cells were analyzed for CD11b expression. The percent of CD11b expressing cells for each inhibitor concentration was used to determine an IC50 curve for each compound analyzed.

Structure (SMILES) | IC50 (full-length human LSD1) [nM] | IC50 (THP-1 (AML) cells) [nM]
CNc1nc(N2CCCNCC2)nc(-c2ccc(C#N)cc2)c1-c1ccc2nn(C)cc2c1 [Example 172, 4-[2-(1,4-diazepan-1-yl)-5-(2-methyl-2H-indazol-5-yl)-6-(methylamino)pyrimidin-4-yl]benzonitrile] | < 100 | < 100
Cc1ccc(-c2cc(NC[C@H]3[C@@H]4CNC[C@@H]43)nn2-c2ccc(C#N)cc2)cc1 [Example 47, 4-[3-[[(1S,5R)-3-azabicyclo[3.1.0]hexan-6-yl]methylamino]-5-(4-methylphenyl)pyrazol-1-yl]benzonitrile] | < 100 | 100 to 1000
N#Cc1ccc(-c2nc(N3CCC(N)CC3)ncc2-c2cnc(NC3CC3)nc2)cc1F [Example 141, 4-[2-(4-aminopiperidin-1-yl)-5-[2-(cyclopropylamino)pyrimidin-5-yl]pyrimidin-4-yl]-2-fluorobenzonitrile] | < 100 | < 100
COc1nc(N2CCC(N)CC2)nc(-c2ccc(C#N)cc2)c1-c1cnn(CC(F)(F)F)c1 [Example 153, 4-[2-(4-aminopiperidin-1-yl)-6-methoxy-5-[1-(2,2,2-trifluoroethyl)-1H-pyrazol-4-yl]pyrimidin-4-yl]benzonitrile] | < 100 | < 100
COc1ccc(-c2cnc(N3CCC(N)CC3)nc2-c2ccc(C#N)cc2)cc1F [Example 84, 4-[2-(4-aminopiperidin-1-yl)-5-(3-fluoro-4-methoxyphenyl)pyrimidin-4-yl]benzonitrile] | < 100 | < 100
Cc1ccc(-c2cnc(N3CCC4(CCNC4)CC3)nc2-c2ccc(C#N)cc2)cc1 [Example 39, 4-(2-{2,8-diazaspiro[4.5]decan-8-yl}-5-(4-methylphenyl)pyrimidin-4-yl)benzonitrile] | < 100 | –
N#Cc1ccc(-c2nc(N3CCC(N)CC3)ncc2-c2ccc3nc[nH]c3c2)cc1 [Example 91, 4-[2-(4-aminopiperidin-1-yl)-5-(3H-benzimidazol-5-yl)pyrimidin-4-yl]benzonitrile] | < 100 | 100 to 1000
CNc1nc(N2CCC(N)CC2)nc(-c2ccc(C#N)c(F)c2)c1-c1cnn(CC(F)(F)F)c1 [Example 167, 4-[2-(4-aminopiperidin-1-yl)-6-(methylamino)-5-[1-(2,2,2-trifluoroethyl)-1H-pyrazol-4-yl]pyrimidin-4-yl]-2-fluorobenzonitrile] | < 100 | < 100
N#Cc1ccc(-c2nc(N3CCC4(CCNC4)CC3)ncc2-c2cnn(CC(F)(F)F)c2)cc1 [Example 121, 4-[2-(2,8-diazaspiro[4.5]decan-8-yl)-5-[1-(2,2,2-trifluoroethyl)pyrazol-4-yl]pyrimidin-4-yl]benzonitrile] | < 100 | –
Cc1ccc(-c2cnc(N3CC4CNCC(C3)O4)nc2-c2ccc(C#N)cc2)cc1 [Example 41, 4-[5-(4-methylphenyl)-2-{9-oxa-3,7-diazabicyclo[3.3.1]nonan-3-yl}pyrimidin-4-yl]benzonitrile] | 100 to 1000 | –
N#Cc1ccc(-c2nc(N3CCC(N)CC3)ncc2-c2ccn3ncnc3c2)cc1 [Example 81, 4-[2-(4-aminopiperidin-1-yl)-5-([1,2,4]triazdo[1,5-a]pyridin-7-yl)pyrimidin-4-yl]benzonitrile] | 100 to 1000 | –
N#Cc1ccc(-c2cc3c(ccn3CC3(F)CCNC3)nc2N2CCOCC2)cc1 (centres unmarked) [Example 8, 4-[1-[(3-fluoropyrrolidin-3-yl)methyl]-5-morpholin-4-ylpyrrolo[3,2-b]pyridin-6-yl]benzonitrile] | 100 to 1000 | –
N#Cc1ccc(-c2nc(N3CCC(N)CC3)ncc2-c2ccc3ncnn3c2)cc1 [Example 127, 4-[2-(4-aminopiperidin-1-yl)-5-([1,2,4]triazolo[1,5-a]pyridin-6-yl)pyrimidin-4-yl]benzonitrile] | 100 to 1000 | –
Cc1ccc(-c2cnc(NCC3(F)CCNC3)nc2-c2ccc(C#N)cc2)cc1 (single isomer, unassigned; (+)) [Example 28, (+)-4-(2-{[(3-fluoropyrrolidin-3-yl)methyl]amino}-5-(4-methylphenyl)pyrimidin-4-yl)benzonitrile] | – | 100 to 1000
Cn1cc2nc(-c3cnc(N4CCC(N)CC4)nc3-c3ccc(C#N)cc3)ncc2n1 [Example 86] | 100 to 1000 | –
N#Cc1ccc(-c2nc(N3CC[C@@H]4CNC[C@@H]4CC3)ncc2-c2ccc(F)cc2)cc1 [Example 24, 4-{2-[(3aR,8aS)-decahydropyrrolo[3,4-d]azepin-6-yl]-5-(4-fluorophenyl)pyrimidin-4-yl}benzonitrile] | < 100 | –
Cc1ccc(-c2cnc(NCC3CCNCC3)nc2-c2ccc(C#N)cc2)cc1 [Example 32, 4-[5-(4-methylphenyl)-2-[(piperidin-4-ylmethyl)amino]pyrimidin-4-yl]benzonitrile] | < 100 | –
Cc1ccc(-c2cnc(N3CCC4(CCNC4)C3)nc2-c2ccc(C#N)cc2)cc1 (centres unmarked) [Example 35, 4-(2-{2,7-diazaspiro[4.4]nonan-2-yl}-5-(4-methylphenyl)pyrimidin-4-yl)benzonitrile] | < 100 | –
N#Cc1ccc(-c2nc(NC[C@H]3CCNC3)ncc2Cl)cc1 [Example 17, 4-(5-chloro-2-{[(3S)-pyrrolidin-3-ylmethyl]amino}pyrimidin-4-yl)benzonitrile] | 100 to 1000 | –
Cn1ncc2nc(-c3cnc(N4CCC(N)CC4)nc3-c3ccc(C#N)cc3)ncc21 [Example 88, 4-[2-(4-aminopiperidin-1-yl)-5-(1-methylpyrazolo[4,3-d]pyrimidin-5-yl)pyrimidin-4-yl]benzonitrile] | 100 to 1000 | –
Cc1ccc(-c2nc3cnn(C4CCNCC4)c3cc2-c2ccc(C#N)cc2)cc1 [Example 48, 4-[5-(4-methylphenyl)-1-piperidin-4-ylpyrazolo[4,3-b]pyridin-6-yl]benzonitrile] | – | > 10000

Now from value to compound:

IC50 (full-length human LSD1) [nM] | IC50 (THP-1 (AML) cells) [nM] | Structure (SMILES)
< 100 | 1000 to 10000 | Cc1ccc(-c2nc3ccn(C[C@H]4CNCCO4)c3cc2-c2ccc(C#N)cc2)cc1 [Example 10, 4-[5-(4-methylphenyl)-1-[[(2R)-morpholin-2-yl]methyl]pyrrolo[3,2-b]pyridin-6-yl]benzonitrile]
< 100 | – | Cc1nn(C)cc1-c1cnc(N2CCC3CNCC3CC2)nc1-c1ccc(C#N)cc1 (centres unmarked) [Example 118, 4-[2-(2,3,3a,4,5,7,8,8a-octahydro-1H-pyrrolo[3,4-d]azepin-6-yl)-5-(1,3-dimethylpyrazol-4-yl)pyrimidin-4-yl]benzonitrile]
– | 1000 to 10000 | N#Cc1ccc(-c2cc3c(ccn3C[C@@H]3CCNC3)nc2Cl)cc1 [Example 2]
< 100 | – | Cc1nc2cc(-c3cnc(N4CCC(N)CC4)nc3-c3ccc(C#N)cc3)ccc2n1C [Example 75, 4-[2-(4-aminopiperidin-1-yl)-5-(1,2-dimethylbenzimidazol-5-yl)pyrimidin-4-yl]benzonitrile]
< 100 | – | COc1ncc(-c2cnc(N3CCC(N)CC3)nc2-c2ccc(C#N)cc2)cn1 [Example 74, 4-[2-(4-aminopiperidin-1-yl)-5-(2-methoxypyrimidin-5-yl)pyrimidin-4-yl]benzonitrile]
< 100 | – | Cc1ccc(-c2cnc(N3CCC4(CCCN4)CC3)nc2-c2ccc(C#N)cc2)cc1 [Example 40, 4-(2-{1,8-diazaspiro[4.5]decan-8-yl}-5-(4-methylphenyl)pyrimidin-4-yl)benzonitrile]
100 to 1000 | – | N#Cc1ccc(-c2nc(N3CC4CNCC(C3)O4)ncc2-c2ccc(F)cc2)cc1 [Example 42, 4-[5-(4-fluorophenyl)-2-{9-oxa-3,7-diazabicyclo[3.3.1]nonan-3-yl}pyrimidin-4-yl]benzonitrile]
100 to 1000 | – | N#Cc1ccc(-c2nc(NCC3CNCCO3)ncc2-c2ccc(F)cc2)cc1 (racemic) [Example 34, (±)-4-[5-(4-fluorophenyl)-2-[(morpholin-2-ylmethyl)amino]pyrimidin-4-yl]benzonitrile]
< 100 | – | Cc1ncc(-c2cnc(N3CCC(N)CC3)nc2-c2ccc(C#N)cc2)cn1 [Example 90, 4-[2-(4-aminopiperidin-1-yl)-5-(2-methylpyrimidin-5-yl)pyrimidin-4-yl]benzonitrile]
< 100 | – | Cc1ccc(-c2cnc(N3CCC4(CCNCC4)C3)nc2-c2ccc(C#N)cc2)cc1 [Example 36, 4-(2-{2,8-diazaspiro[4.5]decan-2-yl}-5-(4-methylphenyl)pyrimidin-4-yl)benzonitrile]
– | 100 to 1000 | Cc1ccc(-c2cnc(NC3CCCNC3)nc2-c2ccc(C#N)cc2)cc1 (single isomer, unassigned; (+)) [Example 29, (+)-4-[5-(4-methylphenyl)-2-[(piperidin-3-yl)amino]pyrimidin-4-yl]benzonitrile]
< 100 | – | Cc1ccc(-c2cnc(NC3CCNCC3)nc2-c2ccc(C#N)cc2)cc1 [Example 30, 4-[5-(4-methylphenyl)-2-[(piperidin-4-yl)amino]pyrimidin-4-yl]benzonitrile]
